Assays:
Format in all cases: cell-based
Panc-10.5 = experiment: WST-1 proliferation assay, Panc-10.5; details: Homo sapiens; PANC - 10.5, 0.05 μM
PC-3 = experiment: WST-1 proliferation assay, PC-3; details: Homo sapiens; for inhibition at 0.1 µM: PC-3, 0.1 μM; for inhibition at 0.5 µM: PC-3, 0.5 μM; for inhibition at 1 µM: PC-3, 1 μM; for IC50: Prostate PC-3, 72 h, read-out: Anti-proliferative activity IC50 (μM) ± SD
Excerpt: (§1) Several cancer cell lines were used: breast cancer cells (MDA-MB-231 (ATTCC® Number HTB-26™), MDA-MB-436 (ATTCC® Number HTB-130™), MDA-MB-438, BT-474 (ATTCC® Number HTB-20™)); cervical cancer cells (HeLa (ATTCC® Number CCL-2™)); colon cancer cells (HCT-116 (ATTCC® Number CCL-247™) and HT-29 (ATTCC® Number HTB-38™)); osteosarcoma cells (U2OS (ATTCC® Number HTB-96™)); pancreas cancer cells (MIA PaCa-2 (ATTCC® Number CRL-1420™) and Panc-10.5 (ATTCC® Number CRL-2547™)); prostate cancer cells (PC-3 (ATTCC® Number CRL-1435™) and LNCaP (ATTCC® Number CRL-1740™)); brain cancer cells (U87 glioblastoma (ATTCC® Number HTB-14™) and SH-SYSY neuroblastoma (ATTCC® Number CRL-2266™)).
(§2) All the cancer cell lines were maintained in cultured in DMEM GlutaMAX™ (GIBCO Invitrogen, France, cat no 31966047) enhanced with 10% foetal bovine serum (GIBCO Invitrogen, France, cat no 10270-106) and 1% penicillin G/streptomycin (GIBCO Invitrogen, France, cat no 15140-122). Only Panc-10.5 cells were cultivated in RPMI 1640 medium (Gibco) supplemented with 2 mM L-glutamine, 1.5 g/L sodium bicarbonate, 4.5 g/L glucose, 10 mM HEPES, 1 mM sodium pyruvate, 10 Units/ml human insulin, […] (SVF): 15% (75 ml in 500 ml of medium).
Cells were grown as subconfluent monolayer and cultured in 75 cm^2 flasks at 37° C., 5% CO2 in a humidified atmosphere, and medium was changed every two days. Only cells from passages 2-6 were used for the experiments.
After observation of cells under the microscope, old media were removed and the adherent cells washed gently twice with PBS (Phosphate Buffer Saline, —Ca^2+, —Mg^2+, Lonza cat no: 17-512F/12). All cells were detached with 3 ml of trypsin/EDTA (chelator of calcium and magnesium ions) (Lonza), incubated for 5 min at 37° C., and examined using a microscope to ensure that the cells were detached and floating. Then, 3 ml TNS (Trypsin Neutralizing Solution, Lonza, France, cat no CC-5002) or of culture medium were added to inactivate the trypsin, and the cell suspension was transferred in a falcon and centrifuged for 7 min at 1400 rpm. The supernatant was removed and the cell pellet resuspended in […] of culture medium. 50 μl of this solution were transferred in 20 μl of isotonic solution and the cells were counted by count cellular (Beckman Coulter). At day 0, 200 μl of cellular suspension (3.10^3 cells/well for the HUVEC cells, breast cancer cells (MDA-MB-231 1.10^4 cells/well, MDA-MB-436 1.10^4 cells/well, MDA-MB-438 2.10^4 cells/well, BT-474 2.5.10^4 cells/well); cervical cancer cells (HeLa 5.000 cells/well); colon cancer cells (HCT-116 5.10^3 cells/well, HCT-29 1.1.10^4 cells/well); osteosarcoma cells (U2OS 8.10^3 cells/well); pancreas cancer cells (MIA PaCa-2 5.10^3 cells/well, Panc-10.5 1.5.10^4 cells/well); prostate cancer cells (PC-3 4.10^3 cells/well, LNCaP 2.10^4 cells/well); brain cancer cells (U87 5.10^3 cells/well, SH-SYSY 8.10^4 cells/well)) were then plated on 96 well plates and incubated at 37° C. in a humidified atmosphere of 5% CO2 for 24 h.
At day 1, the compounds 1 or 2 of the invention were added at increasing concentrations (0.1-10 μM) in the wells and plates were incubated at 37° C. in a humidified atmosphere of 5% CO2 for 72 h.
The cell proliferation WST-1 assay is a colorimetric assay for the quantification of cell proliferation and viability, based on the enzymatic cleavage of the tetrazolium salt WST-1 added to the culture medium, to a water soluble colored formazan dye, detected by absorbance at 450 nm, by mitochondrial succinate-tetrazolium reductase in viable cells. An augmentation in enzyme activity will then lead to an increase in the amount of formazan dye formed, which directly correlates to the number of metabolically active cells in the culture.
After an incubation period of 72 h, at day 4, were prepared the 19 ml medium with reagent WST-1 1 ml ([…]). The medium was removed from the 96 microplate and 200 μl of solution WST-1/medium were added for each well. […]

KMS-II = experiment: WST-1 proliferation assay, KMS-II; details: Homo sapiens; Myeloma KMS-II; read-out: Anti-proliferative activity IC50 (μM) ± SD
Method: as §2
(§3) Cells were grown as subconfluent monolayer and cultured in 75 cm^2 flasks at 37° C., 5% CO2 in a humidified atmosphere, and medium was changed every two days. […]
(§4) The cell proliferation WST-1 assay is a colorimetric assay for the quantification of cell proliferation and viability, based on the enzymatic cleavage of the tetrazolium salt WST-1 added to the culture medium, to a water soluble colored formazan dye, detected by absorbance at 450 nm, by mitochondrial succinate-tetrazolium reductase in viable cells. […]
(§5) After an incubation period of 72 h, at day 4, were prepared the 19 ml medium with reagent WST-1 1 ml ([…]). […] The cells were incubated at 37° C. in a humidified atmosphere of 5% CO2 for 1 h 30 and the absorbance at 450-655 nm was measured by Microplate Manager 5.2 (Bio-Rad).

HT-1080 = experiment: WST-1 proliferation assay, HT-1080; details: Homo sapiens; Fibrosarcoma HT-1080; read-out: Anti-proliferative activity IC50 (μM) ± SD
Method: as §2, §3, §4, §5

MIA PaCa-2 = experiment: WST-1 proliferation assay, MIA PaCa-2; details: Homo sapiens; Pancreas MIA PaCa-2, 72 h; read-out: Anti-proliferative activity IC50 (μM) ± SD
Excerpt: as §1, with “CRL-2266™)). […]” for “CRL-2266™)).”
After observation of cells under the microscope, old media were removed and the adherent cells washed gently twice with PBS (Phosphate Buffer Saline, —Ca^2+, —Mg^2+, Lonza cat no: 17-512F/12). […] 50 μl of this solution were transferred in 20 μl of isotonic solution and the cells were counted by count cellular (Beckman Coulter). […]
as §4

VAL = experiment: WST-1 proliferation assay, VAL; details: Homo sapiens; B lymphoma VAL; read-out: Anti-proliferative activity IC50 (μM) ± SD
Method: as §2, §3, §4, §5

HeLa = experiment: WST-1 proliferation assay, HeLa; details: Homo sapiens

Structure (SMILES) | inhibition at 0.05 µM (Panc-10.5) [%] | inhibition at 0.1 µM (PC-3) [%] | inhibition at 0.5 µM (PC-3) [%] | inhibition at 1 µM (PC-3) [%] | IC50 (PC-3) [µM] | IC50 (KMS-II) [µM] | IC50 (HT-1080) [µM] | IC50 (MIA PaCa-2) [µM] | IC50 (VAL) [µM] | inhibition at 0.05 µM (HeLa) [%]
Cc1ccc(-c2nc3ccccc3[nH]2)cc1NC(=S)NC(=O)c1ccc2c(c1)OCCO2 [Compound 1, N-[5-(1H-benzimidazol-2-yl)-2-methylphenyl]-N′-(2,3-dihydro-1,4-benzodioxin-6-ylcarbonyl)thiourea] | 18 | 3 | 25 | 47 | 1.7 ± 0.04 | 2.3 ± 0.01 | 0.3 ± 0.23 | 1 | 1.8 ± 0.04 | 4
O=C(NC(=S)Nc1cccc(-c2nc3ccccc3[nH]2)c1)c1ccc2c(c1)OCCO2 [Compound 2, N-[3-(1H-benzimidazol-2-yl)phenyl]-N′-(2,3-dihydro-1,4-benzodioxin-6-ylcarbonyl)thiourea] | 35 | 29 | 46 | 46 | 1.5 ± 0.12 | 1.8 ± 0.02 | 0.07 ± 0.03 | 1 | 1 | 49
